Data reported in patent US20250195342A1, “DRY COMPOSITIONS AND METHODS FOR FORMING STABLE LIQUID CLEANSING FORMULATIONS” (Conopco, Inc., d/b/a UNILEVER, priority 2022, published 2025).

Excerpt: Silver ion solubility, as referred to herein, is a value derived from a solubility product (Ksp) in water at 25 degrees centigrade, a well known parameter that is reported in numerous sources.

| Compound | Silver Ion Solubility [Ag+] |
| --- | --- |
| [Cl][Ag] [Silver chloride] | 1.3 × 10″^5 mol/L |
| [Br][Ag] [Silver bromide] | Silver bromide 1 5.3 × 10−^13 7.3 × 10″^7 mol/L |
